Test system: MV-4-11 cells
Assay: Gene expression microarray analysis (Affymetrix PrimeView) and GSEA
Type: cell-based, human
Parameters: RFU PODN (11730768_x_at) / Fold change /veh PODN (11730768_x_at) / RFU LINC00158 (11744669_a_at) / Fold change /veh LINC00158 (11744669_a_at) / RFU DUSP10 (11751237_a_at) / Fold change /veh DUSP10 (11751237_a_at) / RFU ID3 (11757404_x_at) / Fold change /veh ID3 (11757404_x_at) / RFU PLEKHG5 (11737974_s_at) / Fold change /veh PLEKHG5 (11737974_s_at) / RFU LRRC4B (11730491_at) / Fold change /veh LRRC4B (11730491_at) / RFU GIMAP4 (11747438_a_at) / Fold change /veh GIMAP4 (11747438_a_at) / RFU KRT8 (11758183_x_at) / Fold change /veh KRT8 (11758183_x_at) / RFU CNN1 (11734310_a_at) / Fold change /veh CNN1 (11734310_a_at) / RFU VPS37D (11726825_at) / Fold change /veh VPS37D (11726825_at) / RFU C10orf10 (11716522_x_at) / Fold change /veh C10orf10 (11716522_x_at) / RFU KIR2DL2 /// KIR2DL4 /// KIR2DL5A /// KIR2DL5B /// KIR2DS1 /// KIR2DS2 /// KIR2DS3 /// KIR2DS4 /// KIR3DL3 /// KIR3DL3 /// KIR3DS1 (11738374_at) / Fold change /veh KIR2DL2 /// KIR2DL4 /// KIR2DL5A /// KIR2DL5B /// KIR2DS1 /// KIR2DS2 /// KIR2DS3 /// KIR2DS4 /// KIR3DL3 /// KIR3DL3 /// KIR3DS1 (11738374_at) / RFU C1QL1 (11718748_at) / Fold change /veh C1QL1 (11718748_at) / RFU TMPRSS4 (11747572_a_at) / Fold change /veh TMPRSS4 (11747572_a_at) / RFU HAMP (11756126_x_at) / Fold change /veh HAMP (11756126_x_at) / RFU RNFT2 (11725882_a_at) / Fold change /veh RNFT2 (11725882_a_at) / RFU NR4A2 (11747474_a_at) / Fold change /veh NR4A2 (11747474_a_at) / RFU ABCC12 (11746883_a_at) / Fold change /veh ABCC12 (11746883_a_at) / RFU TMEM136 (11760407_x_at) / Fold change /veh TMEM136 (11760407_x_at) / RFU CLDN22 /// WWC2 (11732394_at) / Fold change /veh CLDN22 /// WWC2 (11732394_at) / RFU HLA-DPB1 (11760878_x_at) / Fold change /veh HLA-DPB1 (11760878_x_at) / RFU SPINT1 (11716480_a_at) / Fold change /veh SPINT1 (11716480_a_at) / RFU GAP43 (11754022_s_at) / Fold change /veh GAP43 (11754022_s_at) / RFU A4GNT (11735810_at) / Fold change /veh A4GNT (11735810_at) / RFU PRB3 (11715151_x_at) / Fold change /veh PRB3 (11715151_x_at) / RFU TUBB4B (11761932_at) / Fold change /veh TUBB4B (11761932_at) / RFU CAPN14 (11732068_a_at) / Fold change /veh CAPN14 (11732068_a_at) / RFU TMCC2 (11721928_a_at) / Fold change /veh TMCC2 (11721928_a_at) / RFU IRGQ (11745062_a_at) / Fold change /veh IRGQ (11745062_a_at) / RFU FAM174B (11720279_a_at) / Fold change /veh FAM174B (11720279_a_at) / RFU TMPRSS4 (11748680_a_at) / Fold change /veh TMPRSS4 (11748680_a_at) / RFU FAM212B (11763350_a_at) / Fold change /veh FAM212B (11763350_a_at) / RFU PLEKHG5 (11743358_a_at) / Fold change /veh PLEKHG5 (11743358_a_at) / RFU ZSCAN30 (11745921_a_at) / Fold change /veh ZSCAN30 (11745921_a_at) / RFU CMKLR1 (11741424_a_at) / Fold change /veh CMKLR1 (11741424_a_at) / RFU LOC101060620 /// MAPK8IP1 (11723275_at) / Fold change /veh LOC101060620 /// MAPK8IP1 (11723275_at) / RFU SPTSSB (11747773_x_at) / Fold change /veh SPTSSB (11747773_x_at) / RFU PRSS12 (11739890_at) / Fold change /veh PRSS12 (11739890_at) / RFU BIN1 (11741810_x_at) / Fold change /veh BIN1 (11741810_x_at) / RFU WNT11 (11732464_a_at) / Fold change /veh WNT11 (11732464_a_at) / RFU C10orf10 (11716521_a_at) / Fold change /veh C10orf10 (11716521_a_at) / RFU C5orf56 (11738089_at) / Fold change /veh C5orf56 (11738089_at) / RFU CYB561 (11721691_x_at) / Fold change /veh CYB561 (11721691_x_at) / RFU ANKRD19P (11752326_a_at) / Fold change /veh ANKRD19P (11752326_a_at) / RFU OR2T12 /// OR2T33 /// OR2T8 (11738714_s_at) / Fold change /veh OR2T12 /// OR2T33 /// OR2T8 (11738714_s_at) / RFU VCAN (11748164_a_at) / Fold change /veh VCAN (11748164_a_at) / RFU JSRP1 (11732532_at) / Fold change /veh JSRP1 (11732532_at) / RFU KRTAP10-11 (11738290_x_at) / Fold change /veh KRTAP10-11 (11738290_x_at) / RFU MYO3A (11730013_a_at) / Fold change /veh MYO3A (11730013_a_at) / RFU EBF3 (11725865_a_at) / Fold change /veh EBF3 (11725865_a_at) / RFU CAMK2N1 (11719241_x_at) / Fold change /veh CAMK2N1 (11719241_x_at) / RFU C5orf56 (11738088_a_at) / Fold change /veh C5orf56 (11738088_a_at) / RFU OLFML3 (11715873_a_at) / Fold change /veh OLFML3 (11715873_a_at) / RFU LOC100653217 /// NTM (11731650_a_at) / Fold change /veh LOC100653217 /// NTM (11731650_a_at) / RFU MAPK11 (11762145_a_at) / Fold change /veh MAPK11 (11762145_a_at) / RFU FIZ1 (11724087_x_at) / Fold change /veh FIZ1 (11724087_x_at) / RFU OASL (11726364_x_at) / Fold change /veh OASL (11726364_x_at) / RFU SOX15 (11748057_x_at) / Fold change /veh SOX15 (11748057_x_at) / RFU CD79A (11719716_a_at) / Fold change /veh CD79A (11719716_a_at) / RFU HIST1H1D (11736915_at) / Fold change /veh HIST1H1D (11736915_at) / RFU CASKIN2 (11723855_a_at) / Fold change /veh CASKIN2 (11723855_a_at) / RFU LOC730098 (11760151_x_at) / Fold change /veh LOC730098 (11760151_x_at) / RFU OR4N2 (11742367_at) / Fold change /veh OR4N2 (11742367_at) / RFU PRRT2 (11749266_a_at) / Fold change /veh PRRT2 (11749266_a_at) / RFU SNX32 (11753110_a_at) / Fold change /veh SNX32 (11753110_a_at) / RFU CDHR5 (11726645_a_at) / Fold change /veh CDHR5 (11726645_a_at) / RFU RCAN1 (11760418_a_at) / Fold change /veh RCAN1 (11760418_a_at) / RFU FAM167A (11723789_a_at) / Fold change /veh FAM167A (11723789_a_at) / RFU FAM26E (11764081_at) / Fold change /veh FAM26E (11764081_at) / RFU ISYNA1 (11749810_s_at) / Fold change /veh ISYNA1 (11749810_s_at) / RFU ACY1 (11761880_at) / Fold change /veh ACY1 (11761880_at) / RFU 11764098_at / Fold change /veh 11764098_at / RFU SAMD14 (11745864_x_at) / Fold change /veh SAMD14 (11745864_x_at) / RFU NPB (11741838_a_at) / Fold change /veh NPB (11741838_a_at) / RFU TMPRSS6 (11731388_a_at) / Fold change /veh TMPRSS6 (11731388_a_at) / RFU KRTAP10-2 (11738614_at) / Fold change /veh KRTAP10-2 (11738614_at) / RFU ARHGAP8 /// PRR5-ARHGAP8 (11727945_x_at) / Fold change /veh ARHGAP8 /// PRR5-ARHGAP8 (11727945_x_at) / RFU KRTAP5-7 /// NADSYN1 (11734609_at) / Fold change /veh KRTAP5-7 /// NADSYN1 (11734609_at) / RFU RASL12 (11751679_a_at) / Fold change /veh RASL12 (11751679_a_at) / RFU CDKN2B (11736163_a_at) / Fold change /veh CDKN2B (11736163_a_at) / RFU PRF1 (11729649_at) / Fold change /veh PRF1 (11729649_at) / RFU, ZNF638 /// ZNF638-IT1 / Fold change vs veh, ZNF638 /// ZNF638-IT1 / RFU, PANK3 / Fold change vs veh, PANK3 / RFU, SH3YL1 / Fold change vs veh, SH3YL1 / RFU, ZEB2 / Fold change vs veh, ZEB2 / RFU, NRIP1 / Fold change vs veh, NRIP1 / RFU, PTTG1IP / Fold change vs veh, PTTG1IP / RFU, CAPN2 / Fold change vs veh, CAPN2 / RFU, MED14 / Fold change vs veh, MED14 / RFU, SNORA58 / Fold change vs veh, SNORA58 / RFU, C1orf63 / Fold change vs veh, C1orf63 / RFU, LRRFIP1 / Fold change vs veh, LRRFIP1 / RFU, NDUFAF7 / Fold change vs veh, NDUFAF7 / RFU, SLC12A2 / Fold change vs veh, SLC12A2 / RFU, IBTK / Fold change vs veh, IBTK / RFU, ESF1 / Fold change vs veh, ESF1 / Fold change vs veh, TMEM50B / RFU, TAOK1 / Fold change vs veh, TAOK1 / RFU, ACBD3 / Fold change vs veh, ACBD3 / RFU, TMA16 / Fold change vs veh, TMA16 / RFU, RWDD3 / Fold change vs veh, RWDD3 / RFU, BCAT1 / Fold change vs veh, BCAT1 / RFU, EDEM3 / Fold change vs veh, EDEM3 / RFU, TMEM33 / Fold change vs veh, TMEM33 / RFU, WDR75 / Fold change vs veh, WDR75 / RFU, AHCTF1 / Fold change vs veh, AHCTF1 / RFU, TFRC / Fold change vs veh, TFRC / RFU, ZDHHC17 / Fold change vs veh, ZDHHC17 / RFU, NOM1 / Fold change vs veh, NOM1 / RFU, ARL8B / Fold change vs veh, ARL8B / RFU, ZBTB11 / Fold change vs veh, ZBTB11 / RFU, TAMM41 / Fold change vs veh, TAMM41 / RFU, KIAA1704 /// LOC100996395 / Fold change vs veh, KIAA1704 /// LOC100996395 / RFU, ING1 / Fold change vs veh, ING1 / RFU, TRMT61B / Fold change vs veh, TRMT61B / RFU, FUBP3 / Fold change vs veh, FUBP3 / RFU, TP53 / Fold change vs veh, TP53 / RFU, TNKS2 / Fold change vs veh, TNKS2 / RFU, ZFP14 / Fold change vs veh, ZFP14 / RFU, ACTR2 / Fold change vs veh, ACTR2 / RFU, PPP3R1 / Fold change vs veh, PPP3R1 / RFU, PIK3R1 / Fold change vs veh, PIK3R1 / RFU, HNRNPA1 / Fold change vs veh, HNRNPA1 / RFU, RNF170 / Fold change vs veh, RNF170 / RFU, ZNF28 / Fold change vs veh, ZNF28 / RFU, RNGTT / Fold change vs veh, RNGTT / RFU, OGT / Fold change vs veh, OGT / RFU, BRD1 / Fold change vs veh, BRD1 / RFU, MARS / Fold change vs veh, MARS / RFU, ZNF655 / Fold change vs veh, ZNF655 / RFU, FAHD1 / Fold change vs veh, FAHD1 / RFU, BDP1 / Fold change vs veh, BDP1 / RFU, LRRCC1 / Fold change vs veh, LRRCC1 / RFU, ARID1A / Fold change vs veh, ARID1A / RFU, ZNF146 / Fold change vs veh, ZNF146 / RFU, ZNF330 / Fold change vs veh, ZNF330 / RFU, GPN3 / Fold change vs veh, GPN3 / RFU, C9orf123 / Fold change vs veh, C9orf123 / RFU, N4BP2L2 / Fold change vs veh, N4BP2L2 / RFU, ARFIP1 / Fold change vs veh, ARFIP1 / RFU, FAM179B / Fold change vs veh, FAM179B / RFU, BCL10 / Fold change vs veh, BCL10 / RFU, UHRF1BP1L / Fold change vs veh, UHRF1BP1L / RFU, BET1 / Fold change vs veh, BET1 / RFU, CNOT2 / Fold change vs veh, CNOT2 / RFU, ZNF268 / Fold change vs veh, ZNF268 / Fold change vs veh, ZNF507 / RFU, DGCR2 / Fold change vs veh, DGCR2 / RFU, WDSUB1 / Fold change vs veh, WDSUB1 / Fold change vs veh, HSP90B1 /// MIR3652 / RFU, ADSS / Fold change vs veh, ADSS / RFU, GK / Fold change vs veh, GK / RFU, ZNF148 / Fold change vs veh, ZNF148 / RFU, TAF9 / Fold change vs veh, TAF9 / RFU, SLC1A5 / Fold change vs veh, SLC1A5 / RFU, SLMO2 / Fold change vs veh, SLMO2 / RFU, ABCC4 / Fold change vs veh, ABCC4 / RFU, LOC101060439 /// RAP1B / Fold change vs veh, LOC101060439 /// RAP1B / RFU, RFX7 / Fold change vs veh, RFX7 / RFU, GTPBP10 / Fold change vs veh, GTPBP10 / RFU, CNEP1R1 / Fold change vs veh, CNEP1R1 / RFU, BIVM-ERCC5 /// ERCC5 / Fold change vs veh, BIVM-ERCC5 /// ERCC5 / RFU, ILF3 / Fold change vs veh, ILF3 / RFU 11762660_at / Fold change /veh 11762660_at / RFU VCAN (11757783_s_at) / Fold change /veh VCAN (11757783_s_at) / RFU DDX43 (11728927_at) / Fold change /veh DDX43 (11728927_at) / RFU KRT8 (11758188_x_at) / Fold change /veh KRT8 (11758188_x_at) / RFU NKD1 (11759106_at) / Fold change /veh NKD1 (11759106_at) / RFU SRD5A1 (11742802_a_at) / Fold change /veh SRD5A1 (11742802_a_at) / RFU TPSAB1 /// TPSB2 (11721975_s_at) / Fold change /veh TPSAB1 /// TPSB2 (11721975_s_at) / RFU GSTM3 (11746129_a_at) / Fold change /veh GSTM3 (11746129_a_at) / RFU IL23R (11737362_x_at) / Fold change /veh IL23R (11737362_x_at) / RFU TMEM51 (11727254_a_at) / Fold change /veh TMEM51 (11727254_a_at) / RFU PIWIL2 (11732686_x_at) / Fold change /veh PIWIL2 (11732686_x_at) / RFU ORM1 (11744905_x_at) / Fold change /veh ORM1 (11744905_x_at) / RFU CCDC152 (11743942_at) / Fold change /veh CCDC152 (11743942_at) / RFU ECM1 (11717891_a_at) / Fold change /veh ECM1 (11717891_a_at) / RFU IL23R (11748794_a_at) / Fold change /veh IL23R (11748794_a_at) / RFU TNFAIP8L3 (11732012_x_at) / Fold change /veh TNFAIP8L3 (11732012_x_at) / RFU MBOAT4 (11741988_at) / Fold change /veh MBOAT4 (11741988_at) / RFU 11764193_at / Fold change /veh 11764193_at / RFU TMEM53 (11763286_at) / Fold change /veh TMEM53 (11763286_at) / RFU MAGEB2 (11727129_at) / Fold change /veh MAGEB2 (11727129_at) / RFU TMEM200A (11744735_a_at) / Fold change /veh TMEM200A (11744735_a_at) / RFU CCDC152 (11751479_a_at) / Fold change /veh CCDC152 (11751479_a_at) / RFU FAM211A (11726209_a_at) / Fold change /veh FAM211A (11726209_a_at) / RFU RGS16 (11746705_a_at) / Fold change /veh RGS16 (11746705_a_at) / RFU VCAN (11755009_s_at) / Fold change /veh VCAN (11755009_s_at) / RFU RHOB (11743442_s_at) / Fold change /veh RHOB (11743442_s_at) / RFU RGS16 (11720943_a_at) / Fold change /veh RGS16 (11720943_a_at) / RFU RGS16 (11720944_at) / Fold change /veh RGS16 (11720944_at) / RFU, VPS4B / Fold change vs veh, VPS4B / RFU, CREB1 / Fold change vs veh, CREB1 / RFU, DNAJC13 / Fold change vs veh, DNAJC13 / RFU, GNAQ / Fold change vs veh, GNAQ / RFU, CDK5R1 / Fold change vs veh, CDK5R1 / RFU, ZRANB3 / Fold change vs veh, ZRANB3 / RFU, CUL4A / Fold change vs veh, CUL4A / RFU, CCNY / Fold change vs veh, CCNY / RFU, UFL1 / Fold change vs veh, UFL1 / RFU, COG3 / Fold change vs veh, COG3 / RFU, DIAPH2 / Fold change vs veh, DIAPH2 / RFU, SKA2 / Fold change vs veh, SKA2 / RFU, AFF3 / Fold change vs veh, AFF3 / RFU, LMF1 / Fold change vs veh, LMF1 / RFU, IPO11 / Fold change vs veh, IPO11 / RFU, DFFB / Fold change vs veh, DFFB / RFU, FOXP1 / Fold change vs veh, FOXP1 / RFU, CARD8 / Fold change vs veh, CARD8 / RFU, STRN3 / Fold change vs veh, STRN3 / RFU, ADK / Fold change vs veh, ADK / RFU, RASSF2 / Fold change vs veh, RASSF2 / RFU, WIPF1 / Fold change vs veh, WIPF1 / RFU, LARP1B / Fold change vs veh, LARP1B / RFU, RASA1 / Fold change vs veh, RASA1 / RFU, RB1 / Fold change vs veh, RB1 / RFU, PPFIA1 / Fold change vs veh, PPFIA1 / RFU, MAT2A / Fold change vs veh, MAT2A / RFU, CCT5 / Fold change vs veh, CCT5 / RFU, WDR92 / Fold change vs veh, WDR92 / RFU, CUX1 / Fold change vs veh, CUX1 / RFU, TTC7A / Fold change vs veh, TTC7A / RFU, TMEM135 / Fold change vs veh, TMEM135 / RFU, DEPTOR / Fold change vs veh, DEPTOR / RFU, CPM / Fold change vs veh, CPM / RFU, DNAJB6 / Fold change vs veh, DNAJB6 / RFU, CACNA2D3 / Fold change vs veh, CACNA2D3 / RFU, DTX4 / Fold change vs veh, DTX4 / RFU, TFCP2 / Fold change vs veh, TFCP2 / RFU, GMCL1 /// GMCL1P1 / Fold change vs veh, GMCL1 /// GMCL1P1 / RFU, AEBP2 / Fold change vs veh, AEBP2 / RFU, SNHG1 /// SNORD22 /// SNORD25 /// SNORD26 /// SNORD27 /// SNORD28 /// SNORD29 /// SNORD31 / Fold change vs veh, SNHG1 /// SNORD22 /// SNORD25 /// SNORD26 /// SNORD27 /// SNORD28 /// SNORD29 /// SNORD31 / Fold change (Aza/veh), C12orf56 (ProbeSet 11735607_a_at) / Fold change (ACY-1035/veh), C12orf56 (ProbeSet 11735607_a_at) / Fold change (Aza/veh), FGFR1OP (ProbeSet 11751329_s_at) / Fold change (ACY-1035/veh), FGFR1OP (ProbeSet 11751329_s_at) / Fold change (Aza/veh), VPS36 (ProbeSet 11739960_a_at) / Fold change (ACY-1035/veh), VPS36 (ProbeSet 11739960_a_at) / RFU SYPL1 (11715823_x_at) / Fold change /veh SYPL1 (11715823_x_at) / RFU IGFBP7 (11715501_s_at) / Fold change /veh IGFBP7 (11715501_s_at) / RFU REEP3 (11722064_at) / Fold change /veh REEP3 (11722064_at) / RFU IGLL1 (11728026_x_at) / Fold change /veh IGLL1 (11728026_x_at): dose or concentration left out as unconfirmed
Details: ProbeSet 11716331_a_at; LIST D

## Nc1ncn([C@@H]2O[C@H](CO)[C@@H](O)[C@H]2O)c(=O)n1 [azacitidine]
  Fold change vs veh, DNAJB6: 0.52

Source: article PMC5218480 (PLoS ONE, 2017)
